Data set [1] relates to HSV-1. The settings on record: HSV-1-infected cell cultures; cited from earlier work.
The test system of data set [2] is HSV-1. The experiment in a line: HSV-1 infected Vero cells, immunocytochemistry for HSV-1 proteins, Aβ and P-tau. The note with it: MOI 0.01 pfu/cell, 24 h; for staining for Aβ / staining for P-tau: 0.025-25 μM. The data set is classed as cell-based, herpes simplex virus type 1. The protocol: Vero cells were infected with HSV-1 at 0.01 plaque forming units (pfu) per cell [pfu/cell] for 24 hours and treated with varying concentrations of ACV and/or the exemplary compound according to Formula (I). Subsequently, cells were fixed and examined for HSV-1 proteins (A), Aβ(B) and P-tau (C) by immunocytochemistry. 1=vehicle; 2-5=increasing concentrations of the exemplary compound according to Formula (I) [0.025, 0.25, 2.5, 25 μM]; 6-9=increasing concentrations of acyclovir [0.025, 0.25, 2.5, 25 μM].
(§1) The inventors have compared the efficacy of the exemplary compound according to Formula (I) with that of ACV in respect to Aβ and P-tau accumulation in HSV-1 infected cells. African green monkey kidney (Vero) cells or human neuroblastoma (SH-SY5Y) cells were infected with HSV-1 at a multiplicity of infection (MOI) of 0.01 plaque forming units (pfu) per cell [pfu/cell] for 24 hours and were treated with the exemplary compound according to Formula (I), or ACV. The antiviral agents were added at the time of infection and remained throughout the infection. Infection led to typical cytopathic effects (clustering of infected cells positive for HSV-1 protein staining (FIGS. 1A and 2 A, panel 1)).

Data set [3] relates to HSV-1. Description: HSV-1 infected SH-SY5Y cells, immunocytochemistry for HSV-1 proteins, Aβ and P-tau. Format: cell-based, herpes simplex virus type 1. The note with it: MOI 0.01 pfu/cell, 24 h; for staining for Aβ / staining for P-tau: 0.025-25 μM. As for the experimental part:
SH-SY5Y cells were infected with HSV-1 at 0.01 plaque forming units (pfu) per cell [pfu/cell] for 24 hours and treated with varying concentrations of ACV and/or the exemplary compound according to Formula (I). Subsequently, cells were fixed and examined for HSV-1 proteins (A), Aβ (B) and P-tau (C) by immunocytochemistry. 1=vehicle; 2-5=increasing concentrations of the exemplary compound according to Formula (I) [0.025, 0.25, 2.5, 25 μM]; 6-9=increasing concentrations of acyclovir [0.025, 0.25, 2.5, 25 μM].
as §1

The conditions of data set [4]: in vivo; cited from earlier work.
The conditions of data set [5]: cited from earlier work.
Data set [6] can be described thus: safety and tolerability in single and multiple dose phase I trials. Format: in vivo, human. The note with it: healthy male volunteers, single dose and daily doses for 21 days. As for the experimental part:
The results were compared with the effective concentration of the free base of N-[5-(aminosulfonyl)-4-methyl-1,3-thiazol-2-yl]-N-methyl-2-[4-(2-pyridinyl)phenyl]acetamide in cell culture and correlated to exposures reached in healthy male volunteers in single and multiple dose phase I trials (see FIGS. 4-7).
(§2) In healthy male volunteers these plasma concentrations were covered by a single dose of 40 mg as free base equivalent to the crystalline mono mesylate monohydrate salt of N-[5-(aminosulfonyl)-4-methyl-1,3-thiazol-2-yl]-N-methyl-2-[4-(2-pyridinyl)phenyl]-acetamide (see FIG. 4) and at steady state by daily doses of 25 mg as free base equivalent (see FIG. 5) for 21 days.

Data set [7] can be described thus: absolute bioavailability after oral administration. The settings on record: in vivo; oral administration of the mono mesylate monohydrate salt in a composition of the invention; human; read-out: absolute bioavailability of the free base. The source says: In yet another aspect of the invention said absolute bioavailability of 70%±30% of the resultant free base form of N-[5-(aminosulfonyl)-4-methyl-1,3-thiazol-2-yl]-N-methyl-2-[4-(2-pyridinyl)-phenyl]acetamide is achieved in a human.
In the context of the present invention the term “bioavailability” denotes a subcategory of absorption. Bioavailability denotes the fraction of an administered oral dose of the crystalline N-[5-(aminosulfonyl)-4-methyl-1,3-thiazol-2-yl]-N-methyl-2-[4-(2-pyridinyl)-phenyl]acetamide mono methanesulfonic acid monohydrate of the invention that reaches the systemic circulation of a subject as the resultant free base form of N-[5-(aminosulfonyl)-4-methyl-1,3-thiazol-2-yl]-N-methyl-2-[4-(2-pyridinyl)-phenyl]acetamide. By definition, when a medication is administered intravenously, its bioavailability is 100%. However, when a medication is administered via other routes (such as orally), its bioavailability generally decreases (due to incomplete absorption and first-pass metabolism) or may vary from individual to individual. Bioavailability is one of the essential tools in pharmacokinetics, as bioavailability must be considered when calculating dosages for non-intravenous routes of administration.

Data set [8] has as its system HSV. Description: murine HSV skin infection model. The data set is classed as in vivo. The settings on record: oral doses of 5 mg/kg or higher once daily for four days; data not shown. The protocol:
To assess the pharmacokinetic/pharmacodynamic profile the effective dose of the specific free base of N-[5-(aminosulfonyl)-4-methyl-1,3-thiazol-2-yl]-N-methyl-2-[4-(2-pyridinyl)phenyl]-acetamide was validated in a murine HSV skin infection model and associated plasma concentrations were determined (data not shown).
as §2

Setting [9] is: higher concentrations 0.25, 2.5, 25 μM.

Regarding `Nc1nc2c(ncn2COCCO)c(=O)[nH]1` [ACV, acyclovir, reference compound], the “HSV-1 induced accumulation of Aβ and P-tau” value in data set [1] is “reduced the virus-induced accumulation of Aβ and P-tau”. For the same compound, the “cluster size of HSV-1 infected cells (HSV-1 protein staining)” value in data set [2] (0.025 μM) is given as “little effect on cluster sizes”; in data set [2] (setting [9]) it was “reduced their sizes but less so than did the treatment with equimolar exemplary compound according to Formula (I)”; in data set [3] (0.025 μM), “little effect on cluster sizes”; in data set [3] (setting [9]) it was “reduced their sizes but less so than did the treatment with equimolar exemplary compound according to Formula (I)”. Besides, the “staining for Aβ” value in data set [2] and in data set [3] was “still visible at higher concentrations of ACV” in each case. Further, the “staining for P-tau” value in data set [2] and in data set [3] was “still visible at higher concentrations of ACV” in each case. In addition, the oral bioavailability in data set [4] is reported as 15-30%. The water solubility result in data set [5] is “poorly water-soluble”.

Turning to `Cc1nc(N(C)C(=O)Cc2ccc(-c3ccccn3)cc2)sc1S(N)(=O)=O` [N-[5-(aminosulfonyl)-4-methyl-1,3-thiazol-2-yl]-N-methyl-2-[4-(2-pyridinyl)phenyl]acetamid], the “antibody staining to HSV-1 proteins, Aβ and P-tau” value in data set [2] and in data set [3] was “total or almost total removal of antibody staining” each time. In addition, the “cluster size of HSV-1 infected cells (HSV-1 protein staining)” value in data set [2] (0.025 μM) is “slightly smaller compared to control”; in data set [2] (setting [9]), “clusters disappear and only occasionally infected cells could be detected”; in data set [3] (0.025 μM) it was “slightly smaller compared to control”; in data set [3] (setting [9]) it was “clusters disappear and only occasionally infected cells could be detected”. Also, the “staining for Aβ” value in data set [2] and in data set [3] was “reduced” in each case. Also, the “staining for P-tau” value in data set [2] and in data set [3] was “reduced” in each case. Moreover, the safety and tolerability entry in data set [6] was “safe and well tolerated up to the highest dose tested”. Also, the bioavailability (in general, dose-corrected exposure relative to a reference, in per cent) in data set [7] was found to be 70%. In data set [8], the “suppression of murine HSV skin infection” value is listed as “completely suppressed”.

Values taken from patent publication US20150374676A1, “HELICASE-PRIMASE INHIBITORS FOR USE IN A METHOD OF TREATING ALZHEIMER'S DISEASE” (AICURIS GMBH & CO. KG, priority 2013, published 2015).
